Results reported in the supplement of paper PMC4862054.

Key:
Test in all cases: normalised viability (% of control), CellTiter-Blue; higher = more viable cells (about 100 = DMSO control)
HCC1143 [1] = conditions: incubation time: 72 h
Procedure, shortened: (§1)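 384-well plates were pre-loaded with compound in 5 µl medium before 20 µl of breast cancer cell suspension was seeded. Following 72 h incubation, 2.5 µl CellTiter-Blue reagent was added for 2 h at 37 °C. Fluorescence was read at 560/590 nm and plates were normalised to vehicle (100) and a positive kill control (0), checked by Z'-factor. Normalised viability is reported at a single listed concentration of the series.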

MDA-MB-453 [2] = conditions: incubation time: 72 h
Procedure, shortened: as §1

SK-BR-3 [3] = conditions: incubation time: 72 h
Procedure, shortened: as §1

BT-474 [4] = conditions: incubation time: 72 h
Procedure, shortened: as §1

DU-4475 [5] = conditions: incubation time: 72 h
Procedure, shortened: as §1

MDA-MB-468 [6] = conditions: incubation time: 72 h
Procedure, shortened: as §1

CAL-148 [7] = conditions: incubation time: 72 h
Procedure, shortened: as §1

CAL-51 [8] = conditions: incubation time: 72 h
Procedure, shortened: as §1

MFM-223 [9] = conditions: incubation time: 72 h
Procedure, shortened: as §1

MDA-MB-231 [10] = conditions: incubation time: 72 h
Procedure, shortened: as §1

HCC1599 [11] = conditions: incubation time: 72 h
Procedure, shortened: as §1

HCC1937 [12] = conditions: incubation time: 72 h
Procedure, shortened: as §1

HCC1143 [13] = conditions: 100 nM; incubation time: 72 h
Protocol: (§2)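 DSRT, CellTiter-Blue viability, 72 h incubation. Signal is normalised to DMSO and benzethonium chloride controls. Value is the normalised response at dose 3.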

MDA-MB-436 = conditions: 100 nM; incubation time: 72 h
Protocol: as §2

Hs578T = conditions: 100 nM; incubation time: 72 h
Protocol: as §2

MDA-MB-453 [14] = conditions: 10 nM; incubation time: 72 h
Protocol: as §2

SK-BR-3 [15] = conditions: 100 nM; incubation time: 72 h
Protocol: as §2

HDQ-P1 = conditions: 10 nM; incubation time: 72 h
Protocol: as §2

BT-474 [16] = conditions: 100 nM; incubation time: 72 h
Protocol: as §2

DU-4475 [17] = conditions: 10 nM; incubation time: 72 h
Protocol: as §2

CAL-85-1 = conditions: 10 nM; incubation time: 72 h
Protocol: as §2

MDA-MB-468 [18] = conditions: 100 nM; incubation time: 72 h
Protocol: as §2

CAL-148 [19] = conditions: 10 nM; incubation time: 72 h
Protocol: as §2

BT-549 = conditions: 100 nM; incubation time: 72 h
Protocol: as §2

CAL-51 [20] = conditions: 10 nM; incubation time: 72 h
Protocol: as §2

CAL-120 = conditions: 100 nM; incubation time: 72 h
Protocol: as §2

MFM-223 [21] = conditions: 100 nM; incubation time: 72 h
Protocol: as §2

MDA-MB-231 [22] = conditions: 100 nM; incubation time: 72 h
Protocol: as §2

HCC1599 [23] = conditions: 100 nM; incubation time: 72 h
Protocol: as §2

HCC1937 [24] = conditions: 100 nM; incubation time: 72 h
Protocol: as §2

CN(Cc1cnc2nc(N)nc(N)c2n1)c1ccc(C(=O)N[C@@H](CCC(=O)O)C(=O)O)cc1 [Methotrexate]
normalised viability [%]
Conditions | 3 nM | 10 nM | 30 nM | 100 nM | 1000 nM | 10000 nM
BT-474 [4] | – | 115 | – | – | 118 | 128
CAL-51 [8] | 108 | – | 101 | 62.6 | – | –
CAL-148 [7] | 99.8 | – | 91.5 | 67.3 | – | –
DU-4475 [5] | 102 | – | 99.3 | 101 | – | –
HCC1143 [1] | – | 87.8 | – | – | 68.9 | 65.4
HCC1599 [11] | – | 102 | – | – | 75.6 | 103
HCC1937 [12] | – | 86.5 | – | – | 72.1 | 76.1
MDA-MB-231 [10] | – | 94.2 | – | – | 94.7 | 94.1
MDA-MB-453 [2] | 108 | – | 102 | 90.7 | – | –
MDA-MB-468 [6] | – | 90.7 | – | – | 41.5 | 42.7
MFM-223 [9] | – | 108 | – | – | 107 | 100
SK-BR-3 [3] | – | 95.9 | – | – | 52 | 52.8

Conditions | normalised viability [%]
BT-474 [16] | 124
BT-549 | 87.2
CAL-51 [20] | 107
CAL-85-1 | 104
CAL-120 | 50.4
CAL-148 [19] | 105
DU-4475 [17] | 122
HCC1143 [13] | 69.3
HCC1599 [23] | 106
HCC1937 [24] | 96.2
HDQ-P1 | 95.7
Hs578T | 78.6
MDA-MB-231 [22] | 85.9
MDA-MB-436 | 80.7
MDA-MB-453 [14] | 122
MDA-MB-468 [18] | 46.3
MFM-223 [21] | 98.2
SK-BR-3 [15] | 49

CC(C)(C)NC(=O)[C@H]1CC[C@H]2[C@@H]3CC[C@H]4NC(=O)C=C[C@]4(C)[C@H]3CC[C@]12C [Finasteride]
normalised viability [%]
Conditions | 3 nM | 10 nM | 30 nM | 100 nM | 1000 nM | 10000 nM
BT-474 [4] | – | 125 | – | – | 111 | 125
CAL-51 [8] | 112 | – | 108 | 103 | – | –
CAL-148 [7] | 95.1 | – | 96.8 | 102 | – | –
DU-4475 [5] | 97.7 | – | 106 | 103 | – | –
HCC1143 [1] | – | 102 | – | – | 96.8 | 106
HCC1599 [11] | – | 97.1 | – | – | 114 | 83.4
HCC1937 [12] | – | 107 | – | – | 94.7 | 106
MDA-MB-231 [10] | – | 98.2 | – | – | 98.5 | 122
MDA-MB-453 [2] | 117 | – | 98.2 | 112 | – | –
MDA-MB-468 [6] | – | 106 | – | – | 99.2 | 121
MFM-223 [9] | – | 106 | – | – | 97.7 | 41.8
SK-BR-3 [3] | – | 110 | – | – | 107 | 102

Conditions | normalised viability [%]
BT-474 [16] | 125
BT-549 | 107
CAL-51 [20] | 109
CAL-85-1 | 97
CAL-120 | 108
CAL-148 [19] | 93.2
DU-4475 [17] | 107
HCC1143 [13] | 107
HCC1599 [23] | 106
HCC1937 [24] | 91
HDQ-P1 | 106
Hs578T | 105
MDA-MB-231 [22] | 94.2
MDA-MB-436 | 110
MDA-MB-453 [14] | 103
MDA-MB-468 [18] | 103
MFM-223 [21] | 95.1
SK-BR-3 [15] | 104
